According to patent US20230364079A1, “COMPOUND AS BRAIN-PERMEABLE BTK OR HER2 INHIBITOR, PREPARATION METHOD THEREFOR, AND USE THEREOF” (CHENGDU HYPERWAY PHARMACEUTICALS CO., LTD., priority 2020, published 2023):
pIC50: −log10 of the molar value.

target: BTK wild-type kinase (Homo sapiens (Human), UniProt Q06187); test: BTK kinase activity inhibition test in vitro (Caliper EZ Reader); type: biochemical
Method: In the tests on the activity of inhibiting BTK and HER2 kinase in vitro in the examples of the present disclosure, powder of the compound was dissolved in 100% DMSO to prepare a 10 mM stock solution and stored at-20° C. in the dark. […] In addition, the compounds were subjected to experiments such as liver microsome metabolic stability, rat PK, rat brain penetration rate, and drug efficacy model in the examples of the present disclosure.
Compound powders were dissolved in 100% DMSO to make 10 mM stock solutions, which were stored at -20° C. in the dark.
2: Kinase Reaction Process
(1) Preparation of 1 × Kinase buffer.
(5) After centrifugation at 1000 rpm for 30 seconds, the reaction plate was shaken to mix well and incubated at room temperature for 10 min.
(6) A 5/3-fold final concentration of a mixed solution of ATP and Kinase substrate 2 was prepared with 1 × Kinase buffer.
(7) 15 µL of the mixed solution of ATP and substrate with 5/3-fold final concentration was added to start the reaction.
(8) The 384-well plate was centrifuged at 1000 rpm for 30 seconds, shaken to mix well, and incubated at room temperature for 10 min.
(9) 30 µL of a stop solution was added to stop the kinase reaction, and after centrifugation at 1000 rpm for 30 seconds, the plate was shaken to mix well;
(10) The conversion rate was read with Caliper EZ Reader.
where Conversion%_sample indicates the conversion rate reading of the sample; Conversion%_min is the average reading of the negative control wells, representing the conversion rate reading of the wells without enzyme activity; Conversion%_max is the average reading of the ratio of the positive control wells, representing the conversion rate reading of the wells without compound inhibition.
Dose-Response Curve Fitting
With the log value of the concentration as the X-axis, and the percentage inhibition rate as the Y-axis, the dose-effect curve was fitted using the log(inhibitor) vs. response-Variable slope of the analysis software GraphPad Prism 5, so as to determine the IC50 value of each compound on the enzyme activity.
The calculation formula was: […]

BTK wild-type kinase, sequence (Q06187 whole entry): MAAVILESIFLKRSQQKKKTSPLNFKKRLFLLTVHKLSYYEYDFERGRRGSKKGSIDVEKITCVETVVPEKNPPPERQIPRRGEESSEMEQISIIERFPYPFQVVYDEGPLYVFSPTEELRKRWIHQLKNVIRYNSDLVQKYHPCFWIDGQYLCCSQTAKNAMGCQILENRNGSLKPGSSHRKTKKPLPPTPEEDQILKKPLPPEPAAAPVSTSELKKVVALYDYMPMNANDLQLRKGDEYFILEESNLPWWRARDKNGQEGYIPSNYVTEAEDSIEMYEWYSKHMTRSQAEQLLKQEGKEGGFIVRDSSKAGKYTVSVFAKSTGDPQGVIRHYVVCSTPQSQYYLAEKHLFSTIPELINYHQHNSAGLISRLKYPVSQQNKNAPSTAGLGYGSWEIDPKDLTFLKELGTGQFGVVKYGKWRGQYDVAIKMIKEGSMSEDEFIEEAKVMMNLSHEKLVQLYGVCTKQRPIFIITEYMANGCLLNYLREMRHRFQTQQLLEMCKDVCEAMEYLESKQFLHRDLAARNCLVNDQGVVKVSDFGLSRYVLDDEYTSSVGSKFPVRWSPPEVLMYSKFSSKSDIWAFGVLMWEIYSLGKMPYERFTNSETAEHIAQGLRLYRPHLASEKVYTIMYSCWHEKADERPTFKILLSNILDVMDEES

| Structure (SMILES) | pIC50 |
| --- | --- |
| COc1cccc(Oc2ccc(-c3nc(C4CCC(CO)OC4)n4ccnc(N)c34)cc2)c1C#N (single isomer, unassigned) [Compound 89-P2] | > 8.30 |
| Nc1nccn2c(C3CCC(CO)OC3)nc(-c3ccc(C(=O)Nc4cc(C(F)(F)F)ccn4)cc3)c12 (single isomer, unassigned) [Compound 109-P2] | > 8.30 |
| Nc1nccn2c(C3CC[C@H](CO)OC3)nc(-c3ccc(C(=O)Nc4ccccn4)cc3F)c12 (stereo partly shown) [Compound 1-A] | 7.70 to 8.30 |
| Nc1ncc(Cl)n2c(C3CCC(CO)OC3)nc(-c3ccc(C(=O)Nc4ccccn4)cc3)c12 (stereo not shown) [Compound 3] | 7.00 to 7.70 |
| Nc1ncc(Cl)n2c(C3CCC(CO)OC3)nc(-c3ccc(C(=O)Nc4ccccn4)cc3F)c12 (stereo not shown) [Compound 4] | 7.00 to 7.70 |
| COc1cccc(Oc2ccc(-c3nc(C4CCC(CO)OC4)n4ccnc(N)c34)c(F)c2)c1F (stereo not shown) [Compound 10] | > 8.30 |
| Nc1nccn2c(C3CCC(CO)OC3)nc(-c3ccc(Oc4cccc(OC5CC5)c4F)cc3)c12 (stereo not shown) [Compound 15] | 7.70 to 8.30 |
| Nc1nccn2c(C3CCC(CO)OC3)nc(-c3ccc(Oc4c(F)c(F)cc(F)c4F)cc3F)c12 (stereo not shown) [Compound 18] | 7.00 to 7.70 |
| COc1c(F)ccc(Oc2ccc(-c3nc(C4CCC(CO)OC4)n4ccnc(N)c34)cc2)c1F (stereo not shown) [Compound 20] | 7.70 to 8.30 |
| COc1cc(Oc2ccc(-c3nc(C4CCC(CO)OC4)n4ccnc(N)c34)cc2)ccc1F (stereo not shown) [Compound 21] | 7.00 to 7.70 |
| Nc1nccn2c(C3CCC(CO)OC3)nc(-c3ccc(Oc4cccc(C5CC5)c4F)cc3)c12 (stereo not shown) [Compound 22] | 7.00 to 7.70 |
| Nc1nccn2c(C3CCC(CO)OC3)nc(-c3ccc(Oc4cccc(OCC5CC5)c4F)cc3)c12 (stereo not shown) [Compound 23] | 6.00 to 7.00 |
| Nc1nccn2c(C3CCC(CO)OC3)nc(-c3ccc(Oc4ccc(C5CC5)cc4F)cc3)c12 (stereo not shown) [Compound 25] | 7.00 to 7.70 |
| CC(O)(c1ccccc1)c1ccc(-c2nc(C3CCC(CO)OC3)n3ccnc(N)c23)cc1 (stereo not shown) [Compound 27] | 7.00 to 7.70 |
| CNC(=O)c1cccc(Oc2ccc(-c3nc(C4CCC(CO)OC4)n4ccnc(N)c34)cc2)c1F (stereo not shown) [Compound 28] | 7.00 to 7.70 |
| COc1cccc(Oc2ccc(-c3nn(C4CCC(CO)OC4)c4ncnc(N)c34)cc2)c1F (stereo not shown) [Compound 29] | 7.70 to 8.30 |
| COc1cccc(Oc2ccc(-c3nn(C4CCC(CO)OC4)c4ccnc(N)c34)cc2)c1F (stereo not shown) [Compound 30] | 7.70 to 8.30 |
| Cc1cc(NC(=O)c2ccc(C3CC3)cc2F)c(F)cc1-c1nc(C2CCC(CO)OC2)n2ccnc(N)c12 (stereo not shown) [Compound 31] | < 6.00 |
| Nc1nccn2c(C3CCC(CO)OC3)nc(-c3ccc(Oc4ccccc4)cc3Cl)c12 (stereo not shown) [Compound 32] | 7.70 to 8.30 |
| COc1ccccc1C(=O)NCc1ccc(-c2nc(C3CCC(CO)OC3)n3ccnc(N)c23)cc1 (stereo not shown) [Compound 33] | 7.00 to 7.70 |
| Nc1nccn2c(C34CCC(CO)(CC3)OC4)nc(-c3ccc(C(=O)Nc4ccccn4)cc3F)c12 [Compound 35] | 7.70 to 8.30 |
| Nc1ncc(Cl)n2c(C34CCC(CO)(CC3)OC4)nc(-c3ccc(C(=O)Nc4ccccn4)cc3F)c12 [Compound 36] | 7.70 to 8.30 |
| COc1cccc(Oc2ccc(-c3nc(C45CCC(CO)(CC4)OC5)n4ccnc(N)c34)cc2)c1F [Compound 37] | > 8.30 |

| Structure (SMILES) | pIC50 |
| --- | --- |
| COc1cccc(Oc2ccc(-c3nc(C45CCC(CO)(CC4)OC5)n4ccnc(N)c34)c(F)c2)c1F [Compound 38] | 7.70 to 8.30 |
| COc1cccc(Oc2ccc(-c3nc(C45CCC(CO)(CC4)OC5)n4c(Cl)cnc(N)c34)cc2)c1F [Compound 39] | > 8.30 |
| Nc1nccn2c(C34COC(CO)(C3)C4)nc(-c3ccc(Oc4cccc(OC(F)(F)F)c4F)cc3F)c12 [Compound 40] | 7.70 to 8.30 |
| Nc1ncc(Cl)n2c(C34COC(CO)(C3)C4)nc(-c3ccc(Oc4cccc(OC(F)(F)F)c4F)cc3F)c12 [Compound 41] | 7.70 to 8.30 |
| Nc1nccn2c(C34COC(CO)(C3)C4)nc(-c3ccc(C(=O)Nc4ccccn4)cc3)c12 [Compound 42] | 7.00 to 7.70 |
| Nc1nccn2c(C34COC(CO)(C3)C4)nc(-c3ccc(C(=O)Nc4ccccn4)cc3F)c12 [Compound 43] | 7.00 to 7.70 |
| Nc1ncc(Cl)n2c(C34COC(CO)(C3)C4)nc(-c3ccc(C(=O)Nc4ccccn4)cc3F)c12 [Compound 44] | 7.00 to 7.70 |
| COc1cccc(Oc2ccc(-c3nc(C45COC(CO)(C4)C5)n4ccnc(N)c34)cc2)c1F [Compound 45] | 7.70 to 8.30 |
| Nc1nccn2c(C3CCC(CO)OC3)nc(-c3ccc(NC(=O)c4ccc(C5CC5)cc4F)cc3)c12 (stereo not shown) [Compound 46] | 6.00 to 7.00 |
| CC(N)(c1ccccc1)c1ccc(-c2nc(C3CCC(CO)OC3)n3ccnc(N)c23)cc1 (stereo not shown) [Compound 47] | 6.00 to 7.00 |
| Nc1nccn2c(C3CCC(CO)OC3)nc(-c3ccc(Nc4ccccc4)cc3)c12 (stereo not shown) [Compound 48] | 7.00 to 7.70 |
| C[C@](N)(c1ccc(F)cc1)c1cnc(-c2nc(C3CCC(CO)OC3)n3ccnc(N)c23)nc1 (stereo partly shown) [Compound 49] | < 6.00 |
| COc1cccc(Oc2ccc(-c3nc(C4CCC(C5(O)CC5)OC4)n4ccnc(N)c34)cc2)c1F (stereo not shown) [Compound 50] | 7.00 to 7.70 |
| COc1cccc(Oc2ccc(-c3nc(C4CCC(C(C)(C)O)OC4)n4ccnc(N)c34)cc2)c1F (stereo not shown) [Compound 51] | 7.00 to 7.70 |
| COc1cccc(Oc2ccc(-c3nn(C4CCC(CO)OC4)c4c(Cl)cnc(N)c34)cc2)c1F (stereo not shown) [Compound 52] | 7.70 to 8.30 |
| Nc1ncnc2c1c(-c1ccc(Oc3ccccc3)cc1)nn2C1CCC(CO)OC1 (stereo not shown) [Compound 53] | 7.00 to 7.70 |
| Nc1ncnc2c1c(-c1ccc(Oc3ccccc3)cc1F)nn2C1CCC(CO)OC1 (stereo not shown) [Compound 54] | 7.00 to 7.70 |
| Nc1nccn2c(C3CCC(CO)OC3)nc(-c3ccc(OCc4ccccc4)cc3)c12 (stereo not shown) [Compound 55] | 7.00 to 7.70 |
| Nc1nccn2c(C3CCC(CO)OC3)nc(-c3cnc(Nc4cccc(OC(F)(F)F)c4)nc3)c12 (stereo not shown) [Compound 56] | < 6.00 |
| Nc1nccc2c1c(-c1ccc(C(=O)Nc3ccccn3)cc1F)nn2C1CCC(CO)OC1 (stereo not shown) [Compound 57] | 7.00 to 7.70 |
| COc1cccc(NC(=O)c2ccc(-c3nc(C4CCC(CO)OC4)n4ccnc(N)c34)cc2)n1 (stereo not shown) [Compound 58] | < 6.00 |
| Nc1nccn2c(C3CCC(CO)OC3)nc(-c3ccc(Oc4cccnc4F)cc3)c12 (stereo not shown) [Compound 59] | < 6.00 |
| COc1cccc(C(=O)c2ccc(-c3nc(C4CCC(CO)OC4)n4ccnc(N)c34)cc2)c1F (stereo not shown) [Compound 61] | 7.70 to 8.30 |

| Structure (SMILES) | pIC50 |
| --- | --- |
| Nc1nccn2c(C3CCC(CO)OC3)nc(-c3ccc(C(=O)c4ccccc4Cl)cc3)c12 (stereo not shown) [Compound 62] | 7.00 to 7.70 |
| Nc1nccn2c(C3CCC(CO)OC3)nc(-c3ccc(C(O)c4ccccc4Cl)cc3)c12 (stereo not shown) [Compound 63] | 6.00 to 7.00 |
| Nc1ccccc1C(=O)c1ccc(-c2nc(C3CCC(CO)OC3)n3ccnc(N)c23)cc1 (stereo not shown) [Compound 65] | 7.70 to 8.30 |
| Nc1nccn2c(C3CCC(CO)OC3)nc(-c3ccc(C(=O)c4ccccc4O)cc3)c12 (stereo not shown) [Compound 66] | 7.00 to 7.70 |
| CNc1ccccc1C(=O)c1ccc(-c2nc(C3CCC(CO)OC3)n3ccnc(N)c23)cc1 (stereo not shown) [Compound 67] | 6.00 to 7.00 |
| Nc1nccn2c(C3CCC(CO)OC3)nc(-c3ccc(C(=O)Nc4ccc(Cl)cn4)cc3)c12 (stereo not shown) [Compound 68] | 7.00 to 7.70 |
| Nc1nccn2c(C3CCC(CO)OC3)nc(-c3ccc(C(=O)Nc4ccc(F)cn4)cc3)c12 (stereo not shown) [Compound 69] | 7.00 to 7.70 |
| Nc1cccc(NC(=O)c2ccc(-c3nc(C4CCC(CO)OC4)n4ccnc(N)c34)cc2)n1 (stereo not shown) [Compound 71] | 7.00 to 7.70 |
| Nc1nccn2c(C3CCC(CO)OC3)nc(-c3ccc(C(=O)Nc4cccc(Br)n4)cc3)c12 (stereo not shown) [Compound 72] | 6.00 to 7.00 |
| Nc1nccn2c(C3CCC(CO)OC3)nc(-c3ccc(C(=O)Nc4ccc(C(F)(F)F)cn4)cc3)c12 (stereo not shown) [Compound 73] | 6.00 to 7.00 |
| COCCOc1ccc(-c2nc(C3CCC(CO)OC3)n3ccnc(N)c23)cc1 (stereo not shown) [Compound 74] | < 6.00 |
| Nc1nccn2c(C3CCC(CO)OC3)nc(-c3ccc(Oc4cccc(OC(F)F)c4F)cc3)c12 (stereo not shown) [Compound 75] | 7.70 to 8.30 |
| COc1c(F)cccc1Oc1ccc(-c2nc(C3CCC(CO)OC3)n3ccnc(N)c23)cc1 (stereo not shown) [Compound 76] | 6.00 to 7.00 |
| Cc1ccc(Oc2ccc(-c3nc(C4CCC(CO)OC4)n4ccnc(N)c34)cc2)c(F)c1 (stereo not shown) [Compound 77] | 7.00 to 7.70 |
| Cc1ccc(Oc2ccc(-c3nc(C4CCC(CO)OC4)n4ccnc(N)c34)cc2)cc1 (stereo not shown) [Compound 78] | 7.00 to 7.70 |
| COc1cccc(NC(=O)c2ccc(-c3nc(C4CCC(CO)OC4)n4ccnc(N)c34)cc2)c1F (stereo not shown) [Compound 79] | < 6.00 |
| Nc1nccn2c(C3CCC(CO)OC3)nc(-c3cnc(Oc4cccc(Cl)c4)nc3)c12 (stereo not shown) [Compound 81] | < 6.00 |
| COc1cccc(Oc2ccc(-c3nc(C4COC5C(O)COC45)n4ccnc(N)c34)cc2)c1F (stereo not shown) [Compound 82] | 7.00 to 7.70 |
| Nc1nccn2c(C3COC4C(O)COC34)nc(-c3ccc(C(=O)Nc4ccccn4)cc3)c12 (stereo not shown) [Compound 83] | 6.00 to 7.00 |
| Nc1nccn2c(C3CCC(CO)OC3)nc(-c3ccc(Oc4ccc5c(c4F)OCC5)cc3)c12 (stereo not shown) [Compound 84] | 7.00 to 7.70 |
| Nc1nccn2c(C3CCC(CO)OC3)nc(-c3ccc(Oc4ccc5c(c4F)OCO5)cc3)c12 (stereo not shown) [Compound 85] | 6.00 to 7.00 |
